In one data set the test system is DhaA. Particulars: pH 9.4, 30 °C; cited from earlier work.
Data set [1] addresses T1, LinB (Sphingobium indicum, UniProt D4Z2G1).
T1 sequence (D4Z2G1 1-296): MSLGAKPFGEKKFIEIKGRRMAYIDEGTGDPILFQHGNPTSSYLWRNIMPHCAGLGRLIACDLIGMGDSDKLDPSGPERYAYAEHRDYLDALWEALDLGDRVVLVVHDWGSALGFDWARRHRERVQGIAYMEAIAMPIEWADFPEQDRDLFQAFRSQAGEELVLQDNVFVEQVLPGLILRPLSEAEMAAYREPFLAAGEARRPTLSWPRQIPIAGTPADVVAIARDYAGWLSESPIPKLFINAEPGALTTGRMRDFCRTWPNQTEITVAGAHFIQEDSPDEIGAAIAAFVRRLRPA
Particulars: 37 °C, pH 8.6; cited from earlier work.

The next data set has as its target T2, DmmA (Lyngbya majuscula, UniProt Q6DND9).
T2 sequence (Q6DND9 25-341): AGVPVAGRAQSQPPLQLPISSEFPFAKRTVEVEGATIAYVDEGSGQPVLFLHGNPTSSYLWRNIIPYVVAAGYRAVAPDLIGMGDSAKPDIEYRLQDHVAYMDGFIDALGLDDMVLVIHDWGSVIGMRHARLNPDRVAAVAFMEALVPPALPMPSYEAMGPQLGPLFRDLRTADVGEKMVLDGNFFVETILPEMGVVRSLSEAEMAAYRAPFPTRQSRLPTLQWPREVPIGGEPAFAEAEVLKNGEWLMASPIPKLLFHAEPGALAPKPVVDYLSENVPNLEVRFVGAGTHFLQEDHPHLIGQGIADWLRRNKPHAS
Particulars: 37 °C, pH 8.6; cited from earlier work.

Data set [2] in a line: Photophysical properties of fluorescent substrates. The format is physicochemical.
Data set [3] is described as follows: Stability of COU–Br and BDP–Cl in the dark and under irradiation. In kind it is physicochemical. The conditions noted are these: 10 µM, pH 8.0, 30 °C.
Another data set concerns DhlA. Particulars: pH 8.2, 30 °C; cited from earlier work.
Data set [4] has as its target T1, LinB. The conditions noted are these: pH 8.6, 37 °C, cited from earlier work.
Substrate in data set [5]: COc1cc2oc(=O)cc(CBr)c2cc1OC
The data set is described as follows: Steady-state kinetics, fluorescence progress curves fitted globally. The conditions noted are these: other: DmmA, 30 °C, pH 8.0. In kind it is biochemical, marine microbial consortium.

Setting [6] is: PBS buffer/DMSO (90:10, v/v), pH 8.0, c ≈ 10^−6 M.

Consider seven molecules from PMC7182704 (Computational and Structural Biotechnology Journal, 2020).

For orientation: Km means the substrate concentration at which the rate is half of its maximum. For orientation: kcat means the number of substrate molecules converted per active site and unit of time at saturation. One may read the kcat/Km as the second-order rate constant that governs catalysis at low substrate concentration.

Regarding `BrCCCBr` [DBP, 1,3-dibromopropane], in the data set on DhaA, the k1 is 0.8 to 2.5 µM⁻¹ s⁻¹, the k2 is 249 to 272 s⁻¹, the k3 was 13.5 to 16.3 s⁻¹ and the k4 is 3.4 to 4.6 s⁻¹. For the same molecule, the “k−1” value with DhaA is 60 to 300 s⁻¹.
On to `CCCCCl` [CB, 1-chlorobutane], for which, at LinB [1], the Km was 240 ± 20 µM and the kcat was 1.00 ± 0.03 s⁻¹. Moreover, at DmmA, the Km is 0.4 ± 0.1 mM and the kcat is 0.17 ± 0.02 s⁻¹.
`COc1cc2oc(=O)cc(CBr)c2cc1OC` [COU–Br, 4-(bromomethyl)-6,7-dimethoxycoumarin]: in data set [2], the “increase in quantum yield upon covalent binding to HLDs” value is on record as 6 fold. In data set [2] (setting [6]), the “Φfl (quantum yield of fluorescence)” value is recorded as 15.2 ± 1.2% and the “λmax (absorption maximum)” value came out at 354 nm. The “ε (molar absorption coefficient)” value in data set [2] (neat DMSO, three independent measurements) is on record as 11,500 M^−1cm^−1. Further, the stability under irradiation result in data set [3] (PBS buffer/DMSO (90:10), xenon lamp 100 W, 10 min) is recorded as “slowly degraded under irradiation”. Moreover, in data set [3] (PBS buffer/DMSO (90:10, v/v)), the “stability in the dark” value is listed as “stable in the dark”.
On to `ClCCCl` [DCE, 1,2-dichloroethane], for which, in the data set on DhlA, the k1 was 9 ± 1 × 10^-3 μM^−1s^−1, the k2 is 50 ± 10 s⁻¹, the k3 was 14 ± 3 s⁻¹ and the k4 was 8 ± 2 s⁻¹. Also, the “k−1” value in the data set with DhlA was 20 ± 5 s⁻¹.
`BrCCBr` [DBE, 1,2-dibromoethane]: the Michaelis constant (Km) on LinB [1] is 1700 ± 200 µM; at DmmA it was 2.3 ± 0.3 mM. Moreover, the results for the kcat at LinB [1] and on DmmA were 12 ± 4 s⁻¹ and 1.8 ± 0.4 s⁻¹, respectively.
Consider `CCCCCCCl` [CH, 1-chlorohexane], for which the k3 on LinB [4] (three-step model) was 3.2 ± 0.2 s⁻¹. On LinB [4], the k2 was 117 ± 5 s⁻¹.

B1: DmmA (Lyngbya majuscula) (protein)
chain: AGVPVAGRAQSQPPLQLPISSEFPFAKRTVEVEGATIAYVDEGSGQPVLFLHGNPTSSYLWRNIIPYVVAAGYRAVAPDLIGMGDSAKPDIEYRLQDHVAYMDGFIDALGLDDMVLVIHDWGSVIGMRHARLNPDRVAAVAFMEALVPPALPMPSYEAMGPQLGPLFRDLRTADVGEKMVLDGNFFVETILPEMGVVRSLSEAEMAAYRAPFPTRQSRLPTLQWPREVPIGGEPAFAEAEVLKNGEWLMASPIPKLLFHAEPGALAPKPVVDYLSENVPNLEVRFVGAGTHFLQEDHPHLIGQGIADWLRRNKPHAS
B1: in data set [5], the Km is 0.9 ± 0.6 µM, the kcat is 1.9 ± 0.1 s⁻¹ and the kcat/Km was found to be 2.1 µM⁻¹ s⁻¹.
